According to patent publication US20210205413A1 (Nektar Therapeutics, priority 2018, published 2021):
Several values for one entry are separate records, joined by “and”; a condition that tells them apart may be missing. Equal values may be shown once.

Assays:
[1] = system: Balb/c mice (KLH DTH model); assay: Mouse KLH delayed-type hypersensitivity (DTH) efficacy model, ear swelling; format: in vivo
Procedure: Mice are sensitized subcutaneously in their dorsal area with a 100 μl subcutaneous injection containing 100 μg keyhole limpit hemocyanin (KLH) in an emulsion containing Complete Freund's Adjuvant (CFA) and Incomplete Freund's Adjuvant, at a ratio of 1:1:1 respectively. Five days later, baseline ear thickness is measured prior to challenge with 10 μg of KLH intradermally in the left ear, with the right ear remaining untreated. Ear thickness measurements are measured with calipers at 24, 48, 72 and 96 hours post KLH challenge in all groups. […] A positive control consisting of cyclosporin (10 mg/kg, single dose) was administered on day 0.

[2] = Solution phase stability by HPLC; format: physicochemical; settings: 5° C.
Procedure: The mobile phase is 0.2M ammonium acetate (pH 5.5) at a volume ratio of 80:20 with acetonitrile. The diluent/formulation buffer contained 10 mM sodium acetate, 200 mM sodium chloride, 2% sucrose, at a pH of 5.0. […] Samples are stable up to 5 days at 5° C. in solution.
(refrigerated), and −20° C. at 1, 3, 5, and 7-day time points by RP-HPLC as previously described.
Differences between the RUR20kD-IL-2 composition solutions are evaluated against a control, freshly prepared RUR20kD-IL-2 composition sample solution.

Tcon proliferation = assay: In vitro Treg suppression assay (splenic Tregs of treated mice co-cultured with Tcon); format: cell-based, C57BL/6 mice
Procedure: The objective of this study is to assess the inhibitory function of regulatory T cells. […] Treg and Tcon are co-cultured at a range of ratios from 1:2 to 1:512 for three days. Cellular proliferation is evaluated by ^3H-thymidine incorporation over the final 16 hours of the assay, and the % of proliferating cells relative to plate controls is calculated.
Single-cell isolations are prepared for each spleen, and the resultant splenocyte mixtures are pooled for each dose group at each timepoint. A portion of the pooled sample equivalent to one spleen is aliquoted for immune cell profiling. The remaining splenocyte preparation is utilized for isolation of regulatory T cells (Tregs). […]
In vitro suppression assays are carried out in RPMI 1640 medium supplemented with 10% fetal bovine serum, 2 mM L-glutamine, 1 mM sodium pyruvate, 0.5 μM β-mercaptoethanol, and 1× antibiotic/antimycotic (100 units/mL penicillin, 100 μg/mL streptomycin and 250 ng/mL amphotericin B). […] The suppressive capacity of Tregs is assessed by the addition of Tregs to Tcon at different ratios (Treg:Tcon ratios of […] to 1:512). […] After washing cells free from unincorporated [3H]-thymidine, thymidine uptake is measured as counts-per-minute (CPM) using a microplate scintillation counter (TopCount NXT, Perkin Elmer). […]

CD56+ NK cells = assay: Phase I single ascending dose study in healthy volunteers: NK cells; format: in vivo, human
Procedure: A double-blind, randomized, placebo-controlled study is conducted to evaluate the safety, tolerability, pharmacokinetics, and pharmacodynamics of single ascending low sub-cutaneous doses of an RUR20kD-IL-2 composition (RUR20kD-IL-2) in healthy volunteers. […] Twelve subjects are randomized to each dose cohort, nine of whom received a single subcutaneous dose of RUR20kD-IL-2 while three received placebo. […] The drug product is supplied in single-use glass vials and stored at 2-8° C. […] Placebo is a commercially available 0.9% sodium chloride solution. A starting dose of 0.3 μg/kg is chosen using the minimally anticipated biological effect level (MABEL) approach and is supported by the no observed adverse effect level (NOAEL) in the most sensitive species from nonclinical toxicology studies.
The primary objective of the study is to evaluate the safety and tolerability of RUR20kD-IL-2 administered as a single subcutaneous dose. […] In a first phase of the study, immune markers are tested pre-dose up to 20 hours post-dose. Specifically, Tregs, CD4^+-T cells, CD8^+-T cells, natural killer (NK) cells, cytokines, soluble CD25, and RNA are tested in RUR20kD-IL-2- and placebo-receiving cohorts. In subsequent phases, the same immune markers are also tested at 4-, 5-, 6-, 7-, 8-, 10-, 12-, 15-, 18-, 20-, 25-, 30-, 40, and 50-days post-dose.

NK cells = assay: Single-dose PK/PD study in mice: NK cells; format: in vivo, C57BL/6 mice; settings: single SC 0.3 mg/kg (highest dose), relative to vehicle control
Source text: Following administration, blood and spleen samples are collected at days 1-7 and day 10 post administration. More particularly, at each time point, blood and spleen samples are collected; samples are pooled and assessed for pharmacodynamic analysis of drug action on lymphocyte cell populations by flow cytometry (see e.g. Example 5), expressed as a fold change relative to vehicle control. In addition to changes in cell numbers, functional markers and markers of activity are quantified. Finally, plasma drug concentration is also assessed.

[3] = SC q3d, AUC0-96h of change in ear thickness

Substance: (1,3-bis(methoxypoly(ethylene glycol)10kDcarbamoyl)-2-propanoxy)-4-butanamide)interleukin-2) [RUR20kD-IL-2]
- ear swelling relative to vehicle control ([1]; SC 0.003-0.3 mg/kg every three days): significant dose-dependent decreases in ear swelling
- dose achieving maximal effect [1, 3]: 0.3 mg/kg
- minimally effective dose [1, 3]: 0.01 mg/kg
- time samples are stable in solution ([2]; 1.0 mg/mL in formulation buffer): up to 5 days
- relative difference of mono-PEG, tetra-PEG and penta-PEG species ([2]; 1.0 mg/mL solution pH 5, RT, −20° C. up to 7 days, RP-HPLC): up to 8%
- duration of increased Treg suppressive activity (Tcon proliferation; Treg:Tcon ratio 1:2): maintained for four days
- suppressive capacity of Tregs isolated after administration (Tcon proliferation; Tregs isolated 1 and 4 days post dose, vs vehicle): greatly increased suppressive capacity
- increase in NK cells (CD56+ NK cells; highest dose tested (28.0 μg/kg)): 2 fold and 3.5 fold
- percentage of CD56+ NK cells expressing Ki67 (CD56+ NK cells; single SC 3.0 μg/kg): ~10%
- percentage of CD56+ NK cells expressing Ki67 (CD56+ NK cells; single SC 6.0 μg/kg): 20-30%
- percentage of CD56+ NK cells expressing Ki67 (CD56+ NK cells; single SC 9.0 μg/kg): 30-40%
- percentage of CD56+ NK cells expressing Ki67 (CD56+ NK cells; single SC 13.5 μg/kg): 30-40%
- percentage and absolute numbers of NK cells (CD56+ NK cells; single SC 13.5 and 20.0 μg/kg): small increase in the percentage and absolute numbers of NK cells
- increase in NK cells (NK cells): less than 2 fold
